The text below walks through data of US9567524B2, “Polymerizable liquid crystal compound, and compensation film, antireflective film, and display device including the same” (SAMSUNG ELECTRONICS CO., LTD., priority 2015, dated 2017).

A short description of the data set: Thermogravimetric analysis (TGA), thermal stability. The following applies: Trios V3.0, 10° C./min, N2 atmosphere; FIG. 7. The format is physicochemical. As for the experimental part: Thermogravimetric analysis (TGA) and differential scanning calorimetry (DSC) analysis of the polymerizable liquid crystal compound according to Synthesis Example 1 are performed by using Trios V3.0 (TA Instrument, 10° C./min, N2 atmosphere). FIG. 7 is a drawing showing the thermogravimetric analysis of the polymerizable liquid crystal compound 1a-5 according to Synthesis Example 1, and FIG. 8 is a drawing showing the differential scanning calorimetry (DSC) analysis of the polymerizable liquid crystal compound 1a-5 according to Synthesis Example 1.
Referring to FIG. 7, the polymerizable liquid crystal compound 1a-5 of Synthesis Example 1 is decomposed at a temperature of greater than or equal to 300° C.

Regarding `C=CC(=O)OCCCOc1ccc(C(=O)OCc2ccc(C(=O)Oc3ccc(OC(=O)c4ccc(COC(=O)c5ccc(OCCCOC(=O)C=C)cc5)cc4)cc3)cc2)cc1` [Compound 1a-5], the “Decomposition temperature (TGA)” value is “greater than or equal to 300 °C”.
